Read-outs that look alike come from different tables or passages of the source.

These results are taken from patent US20250340557A1, “PYRIMIDINE DERIVATIVE” (ASKA PHARMACEUTICAL CO., LTD., priority 2022, published 2025).

This assay deals with T1, human mPGES-1 (Homo sapiens, UniProt O14684).
T1 construct: made in house; host or cells: COS-1 cells (transient transfection; microsomal fraction used as enzyme)
T1 sequence (O14684 1-152): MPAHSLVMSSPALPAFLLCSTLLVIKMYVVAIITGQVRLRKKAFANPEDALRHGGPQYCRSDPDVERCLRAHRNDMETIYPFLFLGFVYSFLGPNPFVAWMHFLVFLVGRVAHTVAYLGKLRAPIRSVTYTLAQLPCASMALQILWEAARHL
Nature of the assay: Test for mPGES-1 inhibitory activity (microsomal enzyme, PGE2 EIA). To be noted: 4° C., 4 minutes, read-out: h mPGES1 IC50. It counts as biochemical. An outline of the steps:
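Enzyme source was microsomes from COS-1 cells transiently expressing human mPGES-1, in sodium phosphate pH 7.2 with 2.5 mM GSH, 1 mM EDTA and 2% DMSO final. After a 15 min preincubation with compound at 4 °C, 1 μM PGH2 (final) reacted for 4 min at 4 °C.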

The mark [1] stands for this setting: microsomes of COS-1 cells transfected with human mPGES-1 cDNA, PGH2 1 μM, PGE2 by EIA.
The mark [2] stands for this setting: microsomes from COS-1 cells transfected with human mPGES-1 cDNA, substrate PGH2 1 μM, PGE2 measured by EIA.

One may read the IC50 as the midpoint of a concentration-inhibition curve. In the case of `CC(C)CO[C@H]1C[C@@H](C(=O)NCc2ccc(C(F)(F)F)c(-c3nc(C(F)(F)F)cc(=O)[nH]3)c2F)C1` [Example 257, cis-N-{2-fluoro-3-[6-oxo-4-(trifluoromethyl)-1,6-dihydropyrimidin-2-yl]-4-(trifluoromethyl)benzyl}-3-isobutoxycyclobutane-1-carboxamide], under setting [1], the half-inhibitory concentration (IC50) is 5.8 nM.

On to `CCc1nc(-c2c(C(F)(F)F)ccc(CNC(=O)C3CCN(c4ccc(Cl)cc4)CC3)c2F)[nH]c(=O)c1F` [Example 79, 1-(4-chlorophenyl)-N-[3-(4-ethyl-5-fluoro-6-oxo-1,6-dihydropyrimidin-2-yl)-2-fluoro-4-(trifluoromethyl)benzyl]piperidine-4-carboxamide], for which the IC50 under setting [2] stood at 56 nM.

Consider `Cc1nc(-c2c(C(F)(F)F)ccc(CNC(=O)C3CCN(c4ccc(C(F)(F)F)cn4)CC3)c2F)[nH]c(=O)c1C` [Example 35, N-[3-(4,5-dimethyl-6-oxo-1,6-dihydropyrimidin-2-yl)-2-fluoro-4-(trifluoromethyl)benzyl]-1-[5-(trifluoromethyl)pyridin-2-yl]piperidine-4-carboxamide], for which the IC50 under setting [2] came out at 11 nM.

Turning to `CCc1nc(-c2c(C(F)(F)F)ccc(CNC(=O)[C@H]3C[C@H](OCc4ccccc4Cl)C3)c2F)[nH]c(=O)c1F` [Example 229, trans-3-[(2-chlorobenzyl)oxy]-N-[3-(4-ethyl-5-fluoro-6-oxo-1,6-dihydropyrimidin-2-yl)-2-fluoro-4-(trifluoromethyl)benzyl]cyclobutane-1-carboxamide], the half-inhibitory concentration (IC50) under setting [1] is under 1 nM.

With `O=C(NCc1ccc(C(F)(F)F)c(-c2nc(C(F)(F)F)cc(=O)[nH]2)c1F)C1CCN(c2ccc3ccccc3n2)CC1` [Example 5, N-{2-fluoro-3-[6-oxo-4-(trifluoromethyl)-1,6-dihydropyrimidin-2-yl]-4-(trifluoromethyl)benzyl}-1-(quinolin-2-yl)piperidine-4-carboxamide], under setting [2], the IC50 was under 10 nM.

As for `O=c1cc(C(F)F)nc(-c2c(C(F)(F)F)ccc(CNC(=O)[C@H]3C[C@H](OCc4ccc(Cl)cc4F)C3)c2F)[nH]1` [Example 168, trans-3-[(4-chloro-2-fluorobenzyl)oxy]-N-{3-[4-(difluoromethyl)-6-oxo-1,6-dihydropyrimidin-2-yl]-2-fluoro-4-(trifluoromethyl)benzyl}cyclobutane-1-carboxamide], under setting [1], the IC50 was under 1 nM.

Regarding `O=c1cc(C(F)F)nc(-c2c(C(F)(F)F)ccc(CNC(=O)[C@H]3C[C@H](OCc4ccc(C(F)(F)F)cc4)C3)c2F)[nH]1` [Example 166, trans-N-{3-[4-(difluoromethyl)-6-oxo-1,6-dihydropyrimidin-2-yl]-2-fluoro-4-(trifluoromethyl)benzyl}-3-{[4-(trifluoromethyl)benzyl]oxy}cyclobutane-1-carboxamide], under setting [1], the 50% inhibitory concentration (IC50) is 8.8 nM.

As for `O=C(NCc1ccc(C(F)(F)F)c(-c2nc(C(F)(F)F)cc(=O)[nH]2)c1F)C1CN(C(=O)Cc2ccc(F)cc2)C1` [Example 276, N-{2-fluoro-3-[6-oxo-4-(trifluoromethyl)-1,6-dihydropyrimidin-2-yl]-4-(trifluoromethyl)benzyl}-1-[2-(4-fluorophenyl)acetyl]azetidine-3-carboxamide], the IC50 under setting [1] was found to be 24 nM.

Turning to `Cc1cc(=O)[nH]c(-c2c(C(F)(F)F)ccc(CNC(=O)[C@H]3CC[C@H](OCc4ccccc4Cl)CC3)c2F)n1` [Example 108, trans-4-[(2-chlorobenzyl)oxy]-N-[2-fluoro-3-(4-methyl-6-oxo-1,6-dihydropyrimidin-2-yl)-4-(trifluoromethyl)benzyl]cyclohexane-1-carboxamide], the 50% inhibitory concentration (IC50) under setting [2] is 38 nM.

Consider `O=C(NCc1ccc(C(F)(F)F)c(-c2nc(C(F)(F)F)cc(=O)[nH]2)c1F)C1CCN(c2ccc3nccn3n2)CC1` [Example 1, N-{2-fluoro-3-[6-oxo-4-(trifluoromethyl)-1,6-dihydropyrimidin-2-yl]-4-(trifluoromethyl)benzyl}-1-(imidazo[1,2-b]pyridazin-6-yl)piperidine-4-carboxamide], for which the IC50 under setting [2] was 37 nM.

In the case of `N#Cc1ccc(N2CCC(C(=O)NCc3ccc(C(F)(F)F)c(-c4nc(C(F)(F)F)cc(=O)[nH]4)c3F)CC2)c(Cl)c1` [Example 75, 1-(2-chloro-4-cyanophenyl)-N-{2-fluoro-3-[6-oxo-4-(trifluoromethyl)-1,6-dihydropyrimidin-2-yl]-4-(trifluoromethyl)benzyl}piperidine-4-carboxamide], the IC50 under setting [2] was under 1 nM.

Consider `O=C(NCc1ccc(C(F)(F)F)c(-c2nc(C(F)(F)F)cc(=O)[nH]2)c1F)C1CCN(c2ncc(Cl)cc2F)CC1` [Example 37, 1-(5-chloro-3-fluoropyridin-2-yl)-N-{2-fluoro-3-[6-oxo-4-(trifluoromethyl)-1,6-dihydropyrimidin-2-yl]-4-(trifluoromethyl)benzyl}piperidine-4-carboxamide], for which the 50% inhibitory concentration (IC50) under setting [2] came to 18 nM.

As to `Cc1cc(=O)[nH]c(-c2c(C(F)(F)F)ccc(CNC(=O)[C@H]3C[C@H](OCc4ccc(C(F)(F)F)cc4)C3)c2F)n1` [Example 183, trans-N-[2-fluoro-3-(4-methyl-6-oxo-1,6-dihydropyrimidin-2-yl)-4-(trifluoromethyl)benzyl]-3-{[4-(trifluoromethyl)benzyl]oxy}cyclobutane-1-carboxamide], the IC50 under setting [1] was 10 nM.

As to `CCc1cc(=O)[nH]c(-c2c(C(F)(F)F)ccc(CNC(=O)C3CCN(c4ccc5cccc(C)c5n4)CC3)c2F)n1` [Example 10, N-[3-(4-ethyl-6-oxo-1,6-dihydropyrimidin-2-yl)-2-fluoro-4-(trifluoromethyl)benzyl]-1-(8-methylquinolin-2-yl)piperidine-4-carboxamide], under setting [2], the IC50 is under 1 nM.

Turning to `O=C(NCc1ccc(C(F)(F)F)c(-c2nc(C(F)F)cc(=O)[nH]2)c1F)C1CCN(c2ncc(C(F)(F)F)cc2F)CC1` [Example 55, N-{3-[4-(difluoromethyl)-6-oxo-1,6-dihydropyrimidin-2-yl]-2-fluoro-4-(trifluoromethyl)benzyl}-1-[3-fluoro-5-(trifluoromethyl)pyridin-2-yl]piperidine-4-carboxamide], the concentration for half-maximal inhibition (IC50) under setting [2] is under 1 nM.

Turning to `CCc1cc(=O)[nH]c(-c2c(C(F)(F)F)ccc(CNC(=O)C3CCN(c4ccc(Cl)c(OC)c4)CC3)c2F)n1` [Example 98, 1-(4-chloro-3-methoxyphenyl)-N-[3-(4-ethyl-6-oxo-1,6-dihydropyrimidin-2-yl)-2-fluoro-4-(trifluoromethyl)benzyl]piperidine-4-carboxamide], the half-inhibitory concentration (IC50) under setting [2] worked out at 19 nM.

As for `CCc1cc(=O)[nH]c(-c2c(C(F)(F)F)ccc(CNC(=O)C3CCN(c4cccc(C)n4)CC3)c2F)n1` [Example 24, N-[3-(4-ethyl-6-oxo-1,6-dihydropyrimidin-2-yl)-2-fluoro-4-(trifluoromethyl)benzyl]-1-(6-methylpyridin-2-yl)piperidine-4-carboxamide], the IC50 under setting [2] turned out to be 76 nM.

As for `CCc1nc(-c2c(C(F)(F)F)ccc(CNC(=O)[C@H]3C[C@H](OCc4cccc(Cl)c4F)C3)c2F)[nH]c(=O)c1F` [Example 242, trans-3-[(3-chloro-2-fluorobenzyl)oxy]-N-[3-(4-ethyl-5-fluoro-6-oxo-1,6-dihydropyrimidin-2-yl)-2-fluoro-4-(trifluoromethyl)benzyl]cyclobutane-1-carboxamide], under setting [1], the IC50 is under 1 nM.

With `Cc1nc(-c2c(C(F)(F)F)ccc(CNC(=O)C3CCN(c4cccc(C(F)(F)F)c4)CC3)c2F)[nH]c(=O)c1F` [Example 97, N-[2-fluoro-3-(5-fluoro-4-methyl-6-oxo-1,6-dihydropyrimidin-2-yl)-4-(trifluoromethyl)benzyl]-1-[3-(trifluoromethyl)phenyl]piperidine-4-carboxamide], the IC50 under setting [2] is under 1 nM.

Take `CCc1nc(-c2c(C(F)(F)F)ccc(CNC(=O)[C@H]3C[C@H](OCc4ccc(F)cc4F)C3)c2F)[nH]c(=O)c1F` [Example 235, trans-3-[(2,4-difluorobenzyl)oxy]-N-[3-(4-ethyl-5-fluoro-6-oxo-1,6-dihydropyrimidin-2-yl)-2-fluoro-4-(trifluoromethyl)benzyl]cyclobutane-1-carboxamide]: under setting [1], the half-inhibitory concentration (IC50) was determined as 1.1 nM.

With `CCc1nc(-c2c(C(F)(F)F)ccc(CNC(=O)[C@H]3C[C@H](OCc4ccc(Cl)cc4)C3)c2F)[nH]c(=O)c1F` [Example 231, trans-3-[(4-chlorobenzyl)oxy]-N-[3-(4-ethyl-5-fluoro-6-oxo-1,6-dihydropyrimidin-2-yl)-2-fluoro-4-(trifluoromethyl)benzyl]cyclobutane-1-carboxamide], under setting [1], the IC50 was under 1 nM.

In the case of `CCc1nc(-c2c(C(F)(F)F)ccc(CNC(=O)[C@H]3C[C@H](OCc4ccc(C(F)(F)F)cc4)C3)c2F)[nH]c(=O)c1F` [Example 234, trans-N-[3-(4-ethyl-5-fluoro-6-oxo-1,6-dihydropyrimidin-2-yl)-2-fluoro-4-(trifluoromethyl)benzyl]-3-{[4-(trifluoromethyl)benzyl]oxy}cyclobutane-1-carboxamide], under setting [1], the IC50 was under 1 nM.

As for `Cc1cccc(N2CCC(C(=O)NCc3ccc(C(F)(F)F)c(-c4nc(C(F)(F)F)cc(=O)[nH]4)c3F)CC2)n1` [Example 17, N-{2-fluoro-3-[6-oxo-4-(trifluoromethyl)-1,6-dihydropyrimidin-2-yl]-4-(trifluoromethyl)benzyl}-1-(6-methylpyridin-2-yl)piperidine-4-carboxamide], under setting [2], the half-inhibitory concentration (IC50) was under 10 nM.

Regarding `O=c1cc(C(F)(F)F)nc(-c2c(C(F)(F)F)ccc(CNC(=O)[C@H]3CC[C@H](c4ccc(Cl)cc4)CC3)c2F)[nH]1` [Example 279, trans-4-(4-chlorophenyl)-N-{2-fluoro-3-[6-oxo-4-(trifluoromethyl)-1,6-dihydropyrimidin-2-yl]-4-(trifluoromethyl)benzyl}cyclohexane-1-carboxamide], the half-inhibitory concentration (IC50) under setting [1] is under 1 nM.
